Reference: patent publication US20250214990A1, “DIACYLGLYCEROL KINASE (DGK) ALPHA INHIBITORS AND USES THEREOF” (Insilico Medicine IP Limited, priority 2022, published 2025)

The compounds below were run against T1, DGKA (Homo sapiens, UniProt P23743) (assay: DGKA Inhibition ADP-Glo Assay). Details: 40 μM ATP.
T1 construct: purchased SignalChem D21-10BG
Assay type: biochemical
Description: The DGKA inhibition reactions were performed using ADP-Glo assay. The reactions were carried out in 50 mM HEPES, 100 mM NaCl, 10 mM MgCl2, 1 mM CaCl2, 0.005% TritonX-100 and 1 mM DTT as working solution (pH=7.5). 30 nL DMSO solution of each test compound (Top concentration […] with 10 point, 4-fold dilution series for each compound) were transferred to 384 well plate by Echo and 5 μL DGKA (SignalChem, D21-10BG) enzyme working solution at 2× final reaction concentration was added to each well. After incubated at 25° C. for 15 minutes, 5 μL substrate working solution contain 40 μM ATP (Promega, V915B) and 200 µM DLG (SignalChem, D430-59) were added to initiate reaction. After enzymatic reaction at 25° C. for 60 min, ADP Glo assay reagents (Promega, V9102) were added and luminescence was recorded using an EnVision following the instruction of manual. […] The IC50 value was calculated via a regression analysis of the inhibition rate.

T1 sequence (P23743 whole entry): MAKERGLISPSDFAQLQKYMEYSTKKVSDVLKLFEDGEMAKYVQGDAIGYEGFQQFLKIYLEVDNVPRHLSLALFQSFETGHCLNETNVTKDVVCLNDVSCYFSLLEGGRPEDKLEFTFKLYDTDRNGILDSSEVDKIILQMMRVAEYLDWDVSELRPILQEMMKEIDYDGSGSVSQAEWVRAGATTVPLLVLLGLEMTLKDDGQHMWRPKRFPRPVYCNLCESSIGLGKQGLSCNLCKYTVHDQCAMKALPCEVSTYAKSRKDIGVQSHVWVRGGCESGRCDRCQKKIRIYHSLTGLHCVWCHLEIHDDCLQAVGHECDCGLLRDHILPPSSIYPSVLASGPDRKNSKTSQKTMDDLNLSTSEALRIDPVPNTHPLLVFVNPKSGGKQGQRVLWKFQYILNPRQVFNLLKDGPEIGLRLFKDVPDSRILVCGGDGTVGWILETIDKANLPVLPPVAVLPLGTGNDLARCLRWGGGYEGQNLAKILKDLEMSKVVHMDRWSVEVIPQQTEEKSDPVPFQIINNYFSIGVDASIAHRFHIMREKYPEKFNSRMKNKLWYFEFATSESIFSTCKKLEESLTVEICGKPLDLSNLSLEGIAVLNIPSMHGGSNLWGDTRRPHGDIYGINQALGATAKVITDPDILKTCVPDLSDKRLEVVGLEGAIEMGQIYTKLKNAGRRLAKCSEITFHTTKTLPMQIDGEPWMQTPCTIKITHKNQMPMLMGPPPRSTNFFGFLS

SMILES	IC50 [nM]
Cn1c(=O)nc(N2CCOCc3c(C#CC4(C(F)(F)F)CC4)cncc32)c2cc(Cl)c(OCCO)cc21 [Example 31, 6-chloro-7-(2-hydroxyethoxy)-1-methyl-4-(6-((1-(trifluoromethyl)cyclopropyl)ethynyl)-2,3-dihydropyrido[3,4-e][1,4]oxazepin-1(5H)-yl)quinazolin-2(1H)-one]	< 1
Cc1cccc2c1COCCN2c1nc(=O)n(C)c2cc(OCCO)c(Cl)cc12 [Example 38, 6-chloro-7-(2-hydroxyethoxy)-1-methyl-4-(6-methyl-2,3-dihydrobenzo[e][1,4]oxazepin-1(5H)-yl)quinazolin-2(11H)-one]	1 to 10
Cn1c(=O)nc(N2CCOCc3c(C#CC4(C(F)(F)F)CC4)cccc32)c2cc(C#N)c(NCCO)cc21 [Example 16, 7-((2-hydroxyethyl)amino)-1-methyl-2-oxo-4-(6-((1-(trifluoromethyl)cyclopropyl)ethynyl)-2,3-dihydrobenzo[e][1,4]oxazepin-1(5H)-yl)-1,2-dihydroquinazoline-6-carbonitrile]	< 1
Cn1c(=O)nc(N2CCOCc3c(C#CC4(C(F)(F)F)CC4)cccc32)c2nc(C#N)ccc21 [Example 8]	< 1
Cn1c(=O)cc(N2CCOCc3c(C#CC4(C(F)(F)F)CC4)cccc32)c2nc(C#N)ccc21 [Example 2, 5-methyl-6-oxo-8-(6-((1-(trifluoromethyl)cyclopropyl)ethynyl)-2,3-dihydrobenzo[e][1,4]oxazepin-1(5H)-yl)-5,6-dihydro-1,5-naphthyridine-2-carbonitrile]	< 1
Cn1c(=O)nc(N2CCOCc3c(C#CC4(C(F)(F)F)CC4)cccc32)c2cc(Cl)c(O[C@@H]3CCOC3)cc21 [Example 22, (R)-6-chloro-1-methyl-7-((tetrahydrofuran-3-yl)oxy)-4-(6-((1-(trifluoromethyl)cyclopropyl)ethynyl)-2,3-dihydrobenzo[e][1,4]oxazepin-1(5H)-yl)quinazolin-2(1H)-one]	< 1
Cn1c(=O)nc(N2CCOCc3c(C#CC4(C(F)(F)F)CC4)cccc32)c2cc(C#N)c(O[C@H]3CCOC3)cc21 [Example 23, (S)-1-methyl-2-oxo-7-((tetrahydrofuran-3-yl)oxy)-4-(6-((1-(trifluoromethyl)cyclopropyl)ethynyl)-2,3-dihydrobenzo[e][1,4]oxazepin-1(5H)-yl)-1,2-dihydroquinazoline-6-carbonitrile]	< 1
Cn1c(=O)nc(N2CCOCc3c(C#CC4(C(F)(F)F)CC4)cccc32)c2cc(Cl)c(O[C@H]3CCOC3)cc21 [Example 21, (S)-6-chloro-1-methyl-7-((tetrahydrofuran-3-yl)oxy)-4-(6-((1-(trifluoromethyl)cyclopropyl)ethynyl)-2,3-dihydrobenzo[e][1,4]oxazepin-1(5H)-yl)quinazolin-2(1H)-one]	< 1
Cn1c(=O)nc(N2CCOCc3c(N4CCCC4)cccc32)c2cc(C#N)c(OCCO)cc21 [Example 46, 7-(2-hydroxyethoxy)-1-methyl-2-oxo-4-(6-(pyrrolidin-1-yl)-2,3-dihydrobenzo[e][1,4]oxazepin-1(5H)-yl)-1,2-dihydroquinazoline-6-carbonitrile]	< 1
CN1CCC(Oc2cc3c(cc2Cl)c(N2CCOCc4c(C#CC5(C(F)(F)F)CC5)cccc42)nc(=O)n3C)C1 (stereo not drawn) [Example 35, 6-chloro-1-methyl-7-((1-methylpyrrolidin-3-yl)oxy)-4-(6-((1-(trifluoromethyl)cyclopropyl)ethynyl)-2,3-dihydrobenzo[e][1,4]oxazepin-1(5H)-yl)quinazolin-2(1H)-one]	1 to 10
COCCOc1cc2c(cc1C#N)c(N1CCOCc3c(C#CC4(C(F)(F)F)CC4)cccc31)nc(=O)n2C [Example 18, 7-(2-methoxyethoxy)-1-methyl-2-oxo-4-(6-((1-(trifluoromethyl)cyclopropyl)ethynyl)-2,3-dihydrobenzo[e][1,4]oxazepin-1(5H)-yl)-1,2-dihydroquinazoline-6-carbonitrile]	< 1
Cn1c(=O)nc(N2CCOCc3c(C#CC4(C(F)(F)F)CC4)cccc32)c2cc(Cl)c(OC3CCNC3)cc21 (stereo not drawn) [Example 34, 6-chloro-1-methyl-7-(pyrrolidin-3-yloxy)-4-(6-((1-(trifluoromethyl)cyclopropyl)ethynyl)-2,3-dihydrobenzo[e][1,4]oxazepin-1(5H)-yl)quinazolin-2(1H)-one]	1 to 10
C#Cc1cccc2c1COCCN2c1nc(=O)n(C)c2cc(OCCO)c(Cl)cc12 [Example 39, 6-chloro-4-(6-ethynyl-2,3-dihydrobenzo[e][1,4]oxazepin-1(5H)-yl)-7-(2-hydroxyethoxy)-1-methylquinazolin-2(1H)-one]	< 1
Cn1c(=O)nc(N2CCOCc3c(C#CC4(C(F)(F)F)CC4)cccc32)c2cc(Cl)c(OCCCO)cc21 [Example 27, 6-chloro-7-(3-hydroxypropoxy)-1-methyl-4-(6-((1-(trifluoromethyl)cyclopropyl)ethynyl)-2,3-dihydrobenzo[e][1,4]oxazepin-1(5H)-yl)quinazolin-2(1H)-one]	< 1
Cn1c(=O)nc(N2CCOCc3c(C#CC4(C(F)(F)F)CC4)cccc32)c2nc(Cl)ccc21 [Example 7, 6-chloro-1-methyl-4-(6-((1-(trifluoromethyl)cyclopropyl)ethynyl)-2,3-dihydrobenzol[e][1,4]oxazepin-1(5H)-yl)pyrido[3,2-d]pyrimidin-2(1H)-one]	< 1
Cn1c(=O)nc(N2CCOCc3ccccc32)c2cc(Cl)c(OCCO)cc21 [Example 36, 6-chloro-4-(2,3-dihydrobenzo[e][1,4]oxazepin-1(5H)-yl)-7-(2-hydroxyethoxy)-1-methylquinazolin-2(1H)-one]	1 to 10
Cn1c(=O)nc(N2CCOCc3c(C#CC4(C(F)(F)F)CC4)cccc32)c2cc(C#N)ccc21 [Example 6, 1-methyl-2-oxo-4-(6-((1-(trifluoromethyl)cyclopropyl)ethynyl)-2,3-dihydrobenzo[e][1,4]oxazepin-1(5H)-yl)-1,2-dihydroquinazoline-6-carbonitrile]	< 1
CC#Cc1cccc2c1COCCN2c1nc(=O)n(C)c2cc(OCCO)c(Cl)cc12 [Example 40, 6-chloro-7-(2-hydroxyethoxy)-1-methyl-4-(6-(prop-1-yn-1-yl)-2,3-dihydrobenzo[e][1,4]oxazepin-1(5H)-yl)quinazolin-2(1H)-one]	< 1
CCc1cccc2c1COCCN2c1nc(=O)n(C)c2cc(OCCO)c(C#N)cc12 [Example 45, 4-(6-ethyl-2,3-dihydrobenzo[e][1,4]oxazepin-1(5H)-yl)-7-(2-hydroxyethoxy)-1-methyl-2-oxo-1,2-dihydroquinazoline-6-carbonitrile]	1 to 10
Cn1c(=O)nc(N2CCOCc3c(C#CC4(C(F)(F)F)CC4)cccc32)c2cc(C#N)c(OC3CCOCC3)cc21 [Example 26, 1-methyl-2-oxo-7-((tetrahydro-2H-pyran-4-yl)oxy)-4-(6-((1-(trifluoromethyl)cyclopropyl)ethynyl)-2,3-dihydrobenzo[e][1,4]oxazepin-1(5H)-yl)-1,2-dihydroquinazoline-6-carbonitrile]	< 1
Cn1c(=O)nc(N2CCOCc3c(C#CC4(C(F)(F)F)CC4)cccc32)c2cc(C#N)c(OCCCO)cc21 [Example 28, 7-(3-hydroxypropoxy)-1-methyl-2-oxo-4-(6-((1-(trifluoromethyl)cyclopropyl)ethynyl)-2,3-dihydrobenzo[e][1,4]oxazepin-1(5H)-yl)-1,2-dihydroquinazoline-6-carbonitrile]	< 1
